Legend:
[1] = solubility of the purified porphyrin in demineralized water; type: physicochemical; conditions: at about pH 8, demineralized water
Procedure: A solution of 0.61 gram of 6a in 25 ml tetrahydrofuran (THF) was mixed with a solution of 0.20 gram sodium hydroxide in 120 ml of water and refluxed during 1 hour. The reaction was followed with silicagel thin layer chromatography using THF as the eluens. When the reaction is finished THF and water were removed by distillation under reduced pressure until the volume was approximately 20 ml. The crude product was purified over 10 grams of CM Sephadex cation exchanger (bead size 40-120 μm) from Sigma-Aldrich, which was first treated with 1 M hydrochloric acid and then washed with demineralized water. First the porphyrin solution was carried onto the sephadex gel, and washed with demineralized water to remove salts. The purified porphyrin was eluted with 1% ammoniumhydroxide in water. The resulting brown solution was evaporated to dryness, then demineralized water was added and again the solution was evaporated to dryness to remove traces of ammonia. […] Yet this solubility of about 0.5 mg/ml at about pH 8 is better than for other porphyrin compounds such as MTHPC which is currently used in photodynamic therapy. 0.45 grams (77%) of the dicarboxylic acid 7a was obtained.

[2] = maximum absorption wavelength (λmax); type: physicochemical; conditions: for maximum absorption wavelength: in both dichloromethane and methanol; for λmax / absorption maximum: solvent not stated
Procedure: Refluxing of pure 4a in trichloroacetic acid at 175° C. leads surprising to a new peri-annulated quinoporphyrin-product (5a). The oxidizing agent performing the final oxidation (closing the heterocyclic ring of the quinoline-ring system) to result in the new product is oxygen from the air, similar to what is known for other reactions involving porphyrins (see Woodward, J., Am.. Chem. Soc.. (1960) […]., pp. 3800-3802). The λmax of this new compound 5a is, compared with mesoporphyrindimethylester 1, shifted towards the red (respective values for λmax are: 567 nm and 638 nm).
If desired the metal ion used (here nickel) may be removed in a conventional manner (5 min. conc. sulphuric acid at room temperature, the time required to dissolve completely), yielding the corresponding compounds 6a-6d. Noteworthy are the maximum absorption wavelengths for 6a, 6b, 6c and 6d which are 681, 688, 688 and 683 nm respectively (in both dichloromethane and methanol),which are very long for entirely unsaturated porphyrin ring systems. Benzylation of the quinoline-ring system nitrogen with benzyl bromide/ potassium iodide leads to formation of a cationic benzylated quinoporphyrin (18 N-benzylquinolinium[4,4a,5,6-efg]-annulated mesoporphyrin dimethylester with an absorption maximum at 755 nm. Hydrolysation of this compound yields N-benzylquinolinium[4,4a,5,6-efg]-annulated mesoporphyrin (19).

## quino[4,4a,5,6-efg]-annulated 7-demethyl-8-deethylmesoporphyrin [7a]
[1]
  solubility: about 0.5 mg/ml

## quino[4,4a,5,6-abt]-annulated 2-demethyl-3-deethylmesoporphyrin dimethylester [6d]
[2]
  maximum absorption wavelength: 683 nm

## N-benzylquinolinium[4,4a,5,6-efg]-annulated mesoporphyrin dimethylester [compound 18]
[2]
  λmax / absorption maximum: 755 nm

## 2′-methoxycarbonylquino[4,4a,5,6-qrs]-annulated 18-demethyl-17-de[2-(methoxycarbonyl)ethyl]mesoporphyrin dimethylester [6c]
[2]
  maximum absorption wavelength: 688 nm

## quino[4,4a,5,6-efg]-annulated 7-demethyl-8-deethylmesoporphyrin dimethylester nickel (II) complex [5a]
[2]
  λmax / absorption maximum: 638 nm

## quino[4,4a,5,6-efg]-annulated 7-demethyl-8-deethylmesoporphyrin dimethylester [6a]
[2]
  maximum absorption wavelength: 681 nm

## 2′-methoxycarbonylquino[4,4a,5,6-jkl]-annulated 12-demethyl-13-de[2-(methoxycarbonyl)ethyl]mesoporphyrin dimethylester [6b]
[2]
  maximum absorption wavelength: 688 nm

## mesoporphyrin dimethylester [compound 1, reference compound]
[2]
  λmax / absorption maximum: 567 nm
